Measurements from patent US7476650B2, “Enzyme inhibition” (Yale University, priority 1999, dated 2009).
Where two headings read alike, the source gives them in different places. Blank lines part the entries; values can stand above or below the compound they belong to. Where a SMILES comes first, the peptide text is derived from it. The star is where a group is joined. Cbz = O=C(OCc1ccccc1)*

Key:
[1] = tested on: bovine aortic endothelial (BAE) cells; experiment: BAE cell proliferation ([methyl-3H]-thymidine incorporation); type: cell-based
Protocol: BAE cells were cultured at 7% CO2 and were grown in DMEM supplemented with 10% FBS, 1% penicillin/streptomycin (GIBCO), and 1 mM sodium pyruvate.
Approximately 1000 BAE cells were plated into each well of a 96-well culture plate. After an overnight incubation, different concentrations of proteasome inhibitors were added and incubation was continued for another five days. […] Subsequently, 74 kBq of [methyl-^3H]-thymidine was added to each well of the plate and the plate was incubated for another additional 4 hours. Cells were harvested using a Skatron Cell Harvester and incorporated radioactivity was quantified using liquid scintillation. Proliferation of BAE cells was assayed in triplicate in the presence of different concentrations of peptide epoxides.
Perturbation of the proteasome activity can result in inhibition of cell growth, and can further lead to cell death at elevated concentration of the proteasome inhibitors. This provides an excellent cell-based assay to assess the importance of each catalytic activity of the 20S proteasome in degradation of proteins involved in cell growth. We measured inhibition of proliferation of bovine aortic endothelial (BAE) cells with our α′,β′-epoxyketone-based inhibitors with varying degree of specificity for the PGPH activity.

[2] = biological target: T1, PGPH activity of purified bovine erythrocyte 20S proteasome (Bos taurus, UniProt Q3MHN0); experiment: Enzyme kinetic assay, PGPH activity (Z-LLE-AMC); type: biochemical; conditions: for kobs/[I] for PGPH activity using Z-LLE-AMC: Examples 9 and 10; for kobs/[I] PGPH: Table 3; for selectivity for the PGPH activity: in words, data not shown for Glu compounds; for kassoc = kobs/[I] PGPH activity: Table 2, inhibitor concentration range in the line below
T1 construct: from tissue; host or cells: bovine erythrocytes (red blood cells)
Protocol: We investigated the potency of inhibitors of various length. Mono-, di-,tri- and tetraleucine α′,β′-epoxides were ranked by determination of the kobs/[I] values for inhibition of the chymotrypsin-like, trypsin-like, and PGPH activities of purified bovine erythrocyte 20S proteasome. Enzyme kinetic assays were performed as described in Example 2.
(§1) Purified bovine erythrocyte proteasome was enzymatically assayed using a variety of different substrates and inhibitors. In order to evaluate the rates of proteolytic inactivation by inhibitors, kassociation (kobs/[I]) values were determined using fluorogenic peptide substrates over a range of inhibitor concentrations.

[3] = biological target: T2, trypsin-like activity of purified bovine erythrocyte 20S proteasome (Bos taurus, UniProt Q2TBP0); experiment: Enzyme kinetic assay, trypsin-like activity (Boc-LRR-AMC); type: biochemical; conditions: for kobs/[I] for tryptic-like activity using Boc-LRR-AMC: Examples 9 and 10; for inhibition of the trypsin-like activity of the proteasome: in words; for kassoc = kobs/[I] Trypsin-like activity: Table 2, inhibitor concentration range in the line below
T2 construct: from tissue; host or cells: bovine erythrocytes (red blood cells)
Description: (§2) We investigated the potency of inhibitors of various length. Mono-, di-,tri- and tetraleucine α′,β′-epoxides were ranked by determination of the kobs/[I] values for inhibition of the chymotrypsin-like, trypsin-like, and PGPH activities of purified bovine erythrocyte 20S proteasome.
as §1

[4] = biological target: T3, chymotrypsin-like activity of purified bovine erythrocyte 20S proteasome (Bos taurus, UniProt Q32KL2); experiment: Enzyme kinetic assay, chymotrypsin-like activity (Suc-LLVY-AMC); type: biochemical; conditions: for kobs/[I] for chymotryptic-like activity using Suc-LLVY-AMC: Examples 9 and 10, in M-1s-1; for kassoc = kobs/[I] (chymotrypsin-like activity inhibition): Table 5; for kobs/[I] Chymotrypsin-like: Table 3; for kassoc = kobs/[I] Chymotrypsin-like activity: Table 2, inhibitor concentration range in the line below
T3 construct: from tissue; host or cells: bovine erythrocytes (red blood cells)
Description: as §2, §1

cathepsin B = cathepsin B (Homo sapiens, UniProt P07858); experiment: Cathepsin B inhibition assay
[5] = tested on: ubiquitinated proteins in Hela cells; experiment: α-ubiquitin immunoblot of treated Hela cells; type: cell-based; conditions: epoxomicin 10 μM, 2 hours
Protocol: (§3) The control experiment (Crtl) was carried out with vehicle only.

[6] = biological target: T4, purified murine spleen proteasome (Mus musculus, UniProt O35955+P28063+P70195); experiment: [3H]-epoxomicin binding to purified proteasome; conditions: compared with epoxomicin-biotin
T4 construct: from tissue; host or cells: murine spleen
T4 sequence (P28063 73-276): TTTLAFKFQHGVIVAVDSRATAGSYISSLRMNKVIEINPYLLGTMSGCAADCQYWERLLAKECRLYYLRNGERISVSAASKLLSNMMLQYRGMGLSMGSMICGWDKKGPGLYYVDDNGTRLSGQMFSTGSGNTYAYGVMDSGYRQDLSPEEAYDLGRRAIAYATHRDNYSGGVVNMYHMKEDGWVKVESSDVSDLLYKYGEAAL
T4 sequence (O35955 40-273): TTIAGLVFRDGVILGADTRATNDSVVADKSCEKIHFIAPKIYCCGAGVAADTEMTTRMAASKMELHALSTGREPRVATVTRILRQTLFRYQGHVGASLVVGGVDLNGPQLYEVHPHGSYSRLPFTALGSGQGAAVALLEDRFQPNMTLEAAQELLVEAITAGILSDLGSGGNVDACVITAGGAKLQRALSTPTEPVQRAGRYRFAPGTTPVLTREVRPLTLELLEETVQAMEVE
T4 sequence (P70195 44-277): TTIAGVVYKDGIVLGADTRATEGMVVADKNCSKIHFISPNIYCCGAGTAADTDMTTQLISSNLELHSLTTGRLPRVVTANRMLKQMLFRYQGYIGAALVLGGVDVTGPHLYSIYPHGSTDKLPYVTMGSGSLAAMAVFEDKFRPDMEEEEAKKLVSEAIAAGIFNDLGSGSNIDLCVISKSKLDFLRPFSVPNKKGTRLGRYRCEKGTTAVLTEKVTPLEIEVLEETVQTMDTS

[7] = tested on: mice, DNFB applied to the ear; experiment: DNFB ear inflammation (irritant sensitivity response); type: in vivo; conditions: single dose one hour before DNFB, 24 hours
Protocol: Ear thickness was measured at 0 and 24 hours after DNFB application.

[8] = tested on: p53 protein levels in HUVECs; experiment: α-p53 immunoblot of treated HUVECs; type: cell-based; conditions: 5 μM
Protocol: The tumor suppressor p53 is a known target of the proteasome.
as §3

[9] = Table 6, PGPH-directed inhibitors

kobs/[I] for PGPH activity using Z-LLE-AMC [2]: not measurable
kobs/[I] for tryptic-like activity using Boc-LRR-AMC [3]: not measurable
kobs/[I] for chymotryptic-like activity using Suc-LLVY-AMC [4]: 8,500
kassoc = kobs/[I] (chymotrypsin-like activity inhibition) [4]: 8500 M⁻¹ s⁻¹
SMILES: CC(=O)N[C@@H](CC(C)C)C(=O)N[C@@H](Cc1ccccc1)C(=O)N[C@@H](CC(C)C)C(=O)N[C@@H](CC(C)C)C(=O)[C@@]1(C)CO1 [Ac-LFLL-epoxide]
IC50 ([1]; Table 5, five days incubation): 16 nM

kobs/[I] for PGPH activity using Z-LLE-AMC [2]: 20
kobs/[I] for tryptic-like activity using Boc-LRR-AMC [3]: 4.1 M⁻¹ s⁻¹
kobs/[I] for chymotryptic-like activity using Suc-LLVY-AMC [4]: 16,000
kassoc = kobs/[I] (chymotrypsin-like activity inhibition) [4]: 16,000 M^−1 s^−1
SMILES: CC(=O)N[C@@H](CC(C)C)C(=O)N[C@@H](CC(C)C)C(=O)N[C@@H](C)C(=O)N[C@@H](CC(C)C)C(=O)[C@@]1(C)CO1 [Ac-LLAL-epoxide]
IC50 ([1]; Table 5, five days incubation): 34 nM

kobs/[I] for PGPH activity using Z-LLE-AMC [2]: not measurable
kobs/[I] for tryptic-like activity using Boc-LRR-AMC [3]: not measurable
kobs/[I] for chymotryptic-like activity using Suc-LLVY-AMC [4]: 54,000
kassoc = kobs/[I] (chymotrypsin-like activity inhibition) [4]: 54,000 M^−1 s^−1
SMILES: CC(=O)N[C@@H](CC(C)C)C(=O)N[C@@H](CC(C)C)C(=O)N[C@@H](Cc1ccccc1)C(=O)N[C@@H](CC(C)C)C(=O)[C@@]1(C)CO1 [Ac-LLFL-epoxide]
IC50 ([1]; Table 5, five days incubation): 7 nM

selectivity: fold higher kobs/[I] for inhibition of the PGPH activity than the chymotrypsin-like activity ([2]; PGPH vs chymotrypsin-like): 60 fold
kobs/[I] PGPH [2]: 115 ± 15 M⁻¹ s⁻¹
inhibition of the trypsin-like activity of the proteasome [3]: no inhibition
kobs/[I] Chymotrypsin-like [4]: 1.9 ± 0.6 M⁻¹ s⁻¹
SMILES: CCCC[C@H](NC(C)=O)C(=O)N1CCC[C@H]1C(=O)N[C@@H](Cc1ccccc1)C(=O)N[C@@H](CC(C)C)C(=O)[C@@]1(C)CO1 [Ac-NorLPFL-Ex]
IC50 [1, 9]: 53000 nM

kobs/[I] PGPH [2]: 194 ± 4 M⁻¹ s⁻¹
selectivity for the PGPH activity [2]: no selectivity
inhibition of the trypsin-like activity of the proteasome [3]: no inhibition
kobs/[I] Chymotrypsin-like [4]: 190 ± 60 M⁻¹ s⁻¹
SMILES: CC(C)CCCCC(=O)N1CCC[C@H]1C(=O)N[C@@H](Cc1ccccc1)C(=O)N[C@@H](CC(C)C)C(=O)[C@@]1(C)CO1 [Isooctanioc-PFL-Ex]
IC50 [1, 9]: 600 nM

kobs/[I] PGPH [2]: 150 ± 40 M⁻¹ s⁻¹
selectivity for the PGPH activity [2]: no selectivity
inhibition of the trypsin-like activity of the proteasome [3]: no inhibition
kobs/[I] Chymotrypsin-like [4]: 220 ± 70 M⁻¹ s⁻¹
SMILES: CC(C)C[C@H](NC(=O)[C@H](Cc1ccccc1)NC(=O)[C@@H]1CCCN1C(=O)c1ccc(N(C)C)cc1)C(=O)[C@@]1(C)CO1 [N-dimethylaminobenzoyl-PFL-EX]
IC50 [1, 9]: 400 nM

kassoc = kobs/[I] PGPH activity [2]: 6.4 ± 2.3 M⁻¹ s⁻¹
inhibition of cathepsin B enzymatic activity (cathepsin B; at 10 μM): significantly inhibited
kassoc = kobs/[I] Trypsin-like activity [3]: 5.3 ± 2.8 M⁻¹ s⁻¹
kassoc = kobs/[I] Chymotrypsin-like activity [4]: 6790 ± 919 M⁻¹ s⁻¹
SMILES: CC(C)C[C@@H](/C=C/S(C)(=O)=O)NC(=O)[C@H](CC(C)C)NC(=O)[C@H](CC(C)C)NC(=O)Cc1cc(I)c(O)c([N+](=O)[O-])c1 [NLVS, reference compound]

kobs/[I] PGPH [2]: 23 ± 3 M⁻¹ s⁻¹
kobs/[I] Trypsin-like ([3]; Table 3): 3.7 ± 1.1 M⁻¹ s⁻¹
kobs/[I] Chymotrypsin-like [4]: 520 ± 40 M⁻¹ s⁻¹
SMILES: CC(C)C[C@H](NC(=O)[C@H](Cc1ccccc1)NC(=O)[C@@H]1CCCN1C(=O)c1cnccn1)C(=O)C1(C)CO1 (stereo partly shown) [Pyrazinecarbonyl-PFL-Ex]
IC50 [1, 9]: 400 nM

SMILES: CC(C)C[C@@H](C=O)NC(=O)[C@H](CC(C)C)NC(=O)[C@H](CC(C)C)NC(=O)OCc1ccccc1 [Z-LLL-H] (Cbz-Leu-Leu-Leu-aldehyde)
accumulation of ubiquitinated proteins (anti-ubiquitin antibody) [5]: upper molecular weight bands were also observed

SMILES: [3H]C([3H])([3H])C(=O)N(C)[C@H](C(=O)N[C@H](C(=O)N[C@H](C(=O)N[C@@H](CC(C)C)C(=O)[C@@]1(C)CO1)[C@@H](C)O)[C@@H](C)CC)[C@@H](C)CC [[^3H] epoxomicin]
protein binding pattern [6]: same protein binding pattern observed with epoxomicin-biotin

SMILES: CC(C)[C@H](O)[C@@]12NC(=O)[C@H](C)[C@@H]1OC2=O [clasto-lactacystin β lactone, clasto-lactacystin β-lactone, reference compound]
kassoc = kobs/[I] PGPH activity [2]: 37 ± 4.7 M⁻¹ s⁻¹
inhibition of cathepsin B enzymatic activity (cathepsin B; at 50 μM): significantly inhibited
kassoc = kobs/[I] Trypsin-like activity [3]: 253 ± 41 M⁻¹ s⁻¹
kassoc = kobs/[I] Chymotrypsin-like activity [4]: 8530 ± 280 M⁻¹ s⁻¹

SMILES: CC(=O)N[C@@H](CCc1ccccc1)C(=O)N[C@@H](CC(C)C)C(=O)N[C@@H](Cc1ccccc1)C(=O)N[C@@H](CC(C)C)C(=O)[C@@]1(C)CO1 [compound 16]
IC50 ([1]; Bos taurus, 120 h, Table 5, five days incubation): 20 nM
kinact/KI ([2]; pH 8, Table 4, inhibitor concentration range in parentheses, read-out: kassoc = kobs/[I] PGPH activity): 21 M⁻¹ s⁻¹
inhibition of ear inflammation / ear swelling over vehicle-treated controls ([7]; high dose 2.0 mg/kg (3.6 μmol/kg)): 12 fold
inhibition of ear inflammation / ear swelling over vehicle-treated controls ([7]; low dose 0.32 mg/kg (0.58 μmol/kg)): reducing ear swelling by the same amount as epoxomicin
kinact/KI ([3]; pH 8, Table 4, inhibitor concentration range in parentheses, read-out: kassoc = kobs/[I] Trypsin-like activity): 7.1 M⁻¹ s⁻¹
kinact/KI ([4]; pH 8, read-out: kobs/[I] for chymotryptic-like activity using Suc-LLVY-AMC): 183000 M⁻¹ s⁻¹
kinact/KI ([4]; pH 8, Table 4, inhibitor concentration range in parentheses, read-out: kassoc = kobs/[I] Chymotrypsin-like activity): 166000 M⁻¹ s⁻¹

SMILES: CC(=O)N[C@@H](CSC(=O)[C@]1([C@@H](O)C(C)C)NC(=O)[C@H](C)[C@@H]1O)C(=O)O [lactacystin]
increase of p53 levels over untreated cells [8]: 10 fold
